# Measurements as given in article PMC2655680 (Nucleic Acids Research, 2009).
# Values joined by “and” are separate entries in the source; they are usually repeats but may differ in a detail not shown here. Equal values may be shown once.
# Target: PNK–FHA (FHA domain of human PNK, amino acids 1–109) (Homo sapiens, UniProt Q96T60)
# Format: binding
# Conditions: ITC, peptide injected into PNK–FHA, 10°C, pH 7.5; floating variable of the fit
sequence,measurement,value
YAGSTDENTDSE,"N (stoichiometry, estimated molar ratio peptide:PNK–FHA)",0.46 and 0.50 and 0.56 and 0.88 and 0.51
